# Experimental data published in patent publication US10093630B2, “Pyrazole compounds and methods of making and using same” (ABIDE THERAPEUTICS, INC., priority 2014, dated 2018).
# How the values were obtained:
# Experiment in all cases: In vitro competitive activity-based protein profiling (gel-based, FP-Rh or HT-01 probe)
# Type in all cases: biochemical
# FAAH = target: T1, FAAH (Mus musculus, UniProt O08914); conditions: for inhibition at 1 µM: 1 μM inhibitor, read-out: % Inhibition at 1 μM, B = FAAH; for inhibition at 10 µM: 10 μM inhibitor, read-out: % Inhibition at 10 μM, B = FAAH; for IC50: mouse brain membrane fraction or cell lysates, 30 min preincubation at 37° C., read-out: Mouse (IC50 value, nM) FAAH
# T1 construct: Proteomes (mouse brain membrane fraction or cell lysates); from tissue; host or cells: mouse brain membrane fraction (or cell lysates, not specified)
# T1 sequence (O08914 1-579): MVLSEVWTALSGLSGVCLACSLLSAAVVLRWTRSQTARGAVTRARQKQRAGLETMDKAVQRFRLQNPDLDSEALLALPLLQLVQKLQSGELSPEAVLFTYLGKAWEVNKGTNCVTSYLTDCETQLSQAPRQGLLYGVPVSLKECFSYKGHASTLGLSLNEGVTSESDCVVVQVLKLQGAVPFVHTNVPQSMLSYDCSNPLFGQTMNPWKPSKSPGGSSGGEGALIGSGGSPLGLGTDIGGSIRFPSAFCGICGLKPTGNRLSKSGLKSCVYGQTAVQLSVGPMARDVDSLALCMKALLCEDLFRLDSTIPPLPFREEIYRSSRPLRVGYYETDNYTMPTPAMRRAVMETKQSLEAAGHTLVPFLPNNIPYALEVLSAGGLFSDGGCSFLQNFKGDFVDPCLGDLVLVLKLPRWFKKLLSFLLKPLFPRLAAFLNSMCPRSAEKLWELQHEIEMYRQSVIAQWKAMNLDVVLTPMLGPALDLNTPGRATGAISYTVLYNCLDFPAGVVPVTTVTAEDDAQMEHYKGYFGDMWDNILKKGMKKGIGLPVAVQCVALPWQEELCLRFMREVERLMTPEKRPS
# How it was run: (§1)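 Mouse brain membrane or cell lysate proteomes (1.0 mg/mL) preincubated with inhibitors 30 min at 37° C, then labelled with FP-Rh or HT-01 for 30 min at 37° C. After SDS-PAGE, activity quantified from fluorescent band intensity.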
# MAGL = target: T2, MAGL (Mus musculus, UniProt O35678); conditions: for inhibition at 1 µM: 1 μM inhibitor; for inhibition at 10 µM: 10 μM inhibitor; for IC50: mouse brain membrane fraction or cell lysates, 30 min preincubation at 37° C., read-out: Mouse (IC50 value, nM) MAGL
# T2 construct: Proteomes (mouse brain membrane fraction or cell lysates); from tissue; host or cells: mouse brain membrane fraction (or cell lysates, not specified)
# T2 sequence (O35678 1-303): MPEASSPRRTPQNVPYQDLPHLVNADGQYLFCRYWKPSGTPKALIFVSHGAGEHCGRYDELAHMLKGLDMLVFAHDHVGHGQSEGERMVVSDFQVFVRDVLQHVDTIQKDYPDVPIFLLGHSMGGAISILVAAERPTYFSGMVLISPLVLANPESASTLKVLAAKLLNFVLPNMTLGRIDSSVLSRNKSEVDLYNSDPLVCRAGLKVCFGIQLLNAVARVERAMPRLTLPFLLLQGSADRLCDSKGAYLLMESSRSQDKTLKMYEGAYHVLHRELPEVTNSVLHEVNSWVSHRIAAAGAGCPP
# How it was run: as §1
# PLA2G7 = target: T3, PLA2G7 (Mus musculus, UniProt Q60963); conditions: for inhibition at 1 µM: 1 μM inhibitor, read-out: % Inhibition at 1 μM, D = PLA2G7; for inhibition at 10 µM: 10 μM inhibitor, read-out: % Inhibition at 10 μM, D = PLA2G7; for IC50: mouse brain membrane fraction or cell lysates, 30 min preincubation at 37° C.
# T3 construct: Proteomes (mouse brain membrane fraction or cell lysates); from tissue; host or cells: mouse brain membrane fraction (or cell lysates, not specified)
# T3 sequence (Q60963 22-440): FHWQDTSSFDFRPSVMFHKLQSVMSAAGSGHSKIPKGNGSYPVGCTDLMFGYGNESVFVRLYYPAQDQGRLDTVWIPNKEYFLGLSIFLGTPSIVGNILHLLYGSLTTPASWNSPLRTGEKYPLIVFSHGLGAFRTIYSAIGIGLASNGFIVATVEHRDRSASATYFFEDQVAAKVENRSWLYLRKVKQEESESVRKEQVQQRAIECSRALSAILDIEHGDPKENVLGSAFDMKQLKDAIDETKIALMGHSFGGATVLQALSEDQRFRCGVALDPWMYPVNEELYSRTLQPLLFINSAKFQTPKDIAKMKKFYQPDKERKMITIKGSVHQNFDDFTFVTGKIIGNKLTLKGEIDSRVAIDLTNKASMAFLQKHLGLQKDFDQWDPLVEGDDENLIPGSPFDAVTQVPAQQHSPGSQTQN
# How it was run: as §1
# ABHD6 = target: T4, ABHD6 (Mus musculus, UniProt Q8R2Y0); conditions: for inhibition at 1 µM: 1 μM inhibitor, read-out: % Inhibition at 1 μM, C = ABHD6; for inhibition at 10 µM: 10 μM inhibitor, read-out: % Inhibition at 10 μM, C = ABHD6; for IC50: mouse brain membrane fraction or cell lysates, 30 min preincubation at 37° C., read-out: Mouse (IC50 value, nM) ABHD6
# T4 construct: Proteomes (mouse brain membrane fraction or cell lysates); from tissue; host or cells: mouse brain membrane fraction (or cell lysates, not specified)
# T4 sequence (Q8R2Y0 1-336): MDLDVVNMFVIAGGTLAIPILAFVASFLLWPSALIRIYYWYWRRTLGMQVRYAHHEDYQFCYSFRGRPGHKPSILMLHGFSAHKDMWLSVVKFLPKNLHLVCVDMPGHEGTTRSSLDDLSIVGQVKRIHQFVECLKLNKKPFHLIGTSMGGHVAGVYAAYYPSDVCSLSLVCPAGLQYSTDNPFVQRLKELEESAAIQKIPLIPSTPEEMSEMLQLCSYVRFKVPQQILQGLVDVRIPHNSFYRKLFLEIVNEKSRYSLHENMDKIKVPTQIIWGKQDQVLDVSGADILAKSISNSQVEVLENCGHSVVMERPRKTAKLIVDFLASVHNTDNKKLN
# How it was run: as §1
inhibition at 1 µM (FAAH) [%],inhibition at 10 µM (FAAH) [%],inhibition at 1 µM (MAGL) [%],inhibition at 10 µM (MAGL) [%],inhibition at 1 µM (PLA2G7) [%],inhibition at 10 µM (PLA2G7) [%],inhibition at 1 µM (ABHD6) [%],inhibition at 10 µM (ABHD6) [%],IC50 (FAAH) [nM],IC50 (MAGL) [nM],IC50 (PLA2G7) [nM],IC50 (ABHD6) [nM],Structure (SMILES)
> 75,> 75,> 75,> 75,> 75,> 75,> 75,> 75,,,,,"Cc1ccccc1N1CCN(C(=O)n2cc(C(F)(F)F)cn2)CC1 [Example 230, (4-o-Tolylpiperazin-1-yl)(4-(trifluoromethyl)-1H-pyrazol-1-yl)methanone]"
> 75,> 75,> 75,> 75,> 75,> 75,> 75,> 75,,,,,"Cc1cccc(N2CCN(C(=O)n3cc(C(F)(F)F)cn3)CC2)c1 [Example 231, (4-m-Tolylpiperazin-1-yl)(4-(trifluoromethyl)-1H-pyrazol-1-yl)methanone]"
> 75,> 75,> 75,> 75,> 75,> 75,> 75,> 75,,,,,"Cc1ccc(N2CCN(C(=O)n3cc(C(F)(F)F)cn3)CC2)cc1 [Example 232, (4-p-Tolylpiperazin-1-yl)(4-(trifluoromethyl)-1H-pyrazol-1-yl)methanone]"
> 75,> 75,> 75,> 75,> 75,> 75,> 75,> 75,< 100,< 100,< 100,< 100,"COc1cccc(N2CCN(C(=O)n3cc(C(F)(F)F)cn3)CC2)c1 [Example 234, (4-(3-Methoxyphenyl)piperazin-1-yl)(4-(trifluoromethyl)-1H-pyrazol-1-yl)methanone]"
> 75,> 75,> 75,> 75,> 75,> 75,> 75,> 75,< 100,< 100,< 100,< 100,"COc1ccc(N2CCN(C(=O)n3cc(C(F)(F)F)cn3)CC2)cc1 [Example 235, (4-(4-Methoxyphenyl)piperazin-1-yl)(4-(trifluoromethyl)-1H-pyrazol-1-yl)methanone]"
25 to 75,> 75,> 75,> 75,> 75,> 75,> 75,> 75,,,,,"O=C(N1CCN(c2ccccc2N2CCOCC2)CC1)n1cc(C(F)(F)F)cn1 [Example 236, (4-(2-Morpholinophenyl)piperazin-1-yl)(4-(trifluoromethyl)-1H-pyrazol-1-yl)methanone]"
> 75,> 75,> 75,> 75,> 75,> 75,> 75,> 75,,,,,"O=C(N1CCN(c2cccc(N3CCOCC3)c2)CC1)n1cc(C(F)(F)F)cn1 [Example 237, (4-(3-Morpholinophenyl)piperazin-1-yl)(4-(trifluoromethyl)-1H-pyrazol-1-yl)methanone]"
> 75,> 75,> 75,> 75,> 75,> 75,> 75,> 75,,,,,"O=C(N1CCN(c2ccc(N3CCOCC3)cc2)CC1)n1cc(C(F)(F)F)cn1 [Example 238, (4-(4-Morpholinophenyl)piperazin-1-yl)(4-(trifluoromethyl)-1H-pyrazol-1-yl)methanone]"
> 75,> 75,> 75,> 75,> 75,> 75,> 75,> 75,,,,,"O=C(N1CCN(c2ccccc2N2CCCC2)CC1)n1cc(C(F)(F)F)cn1 [Example 239, (4-(2-(Pyrrolidin-1-yl)phenyl)piperazin-1-yl)(4-(trifluoromethyl)-1H-pyrazol-1-yl)methanone]"
> 75,> 75,> 75,> 75,> 75,> 75,> 75,> 75,,,,,"O=C(N1CCN(c2cccc(N3CCCC3)c2)CC1)n1cc(C(F)(F)F)cn1 [Example 240, (4-(3-(Pyrrolidin-1-yl)phenyl)piperazin-1-yl)(4-(trifluoromethyl)-1H-pyrazol-1-yl)methanone]"
> 75,> 75,> 75,> 75,> 75,> 75,> 75,> 75,< 100,< 100,< 100,< 100,"O=C(N1CCN(c2ccc(N3CCCC3)cc2)CC1)n1cc(C(F)(F)F)cn1 [Example 241, (4-(4-(Pyrrolidin-1-yl)phenyl)piperazin-1-yl)(4-(trifluoromethyl)-1H-pyrazol-1-yl)methanone]"
> 75,,> 75,,< 25,,25 to 75,,,,,,"CCN(Cc1cccc(N2CCOCC2)c1)C(=O)n1cc(C#N)cn1 [Example 242, 4-Cyano-N-ethyl-N-(3-morpholinobenzyl)-1H-pyrazole-1-carboxamide]"
> 75,,> 75,,< 25,,> 75,,< 100,100 to 1000,> 1000,> 1000,"CCN(Cc1cccc(Cl)c1)C(=O)n1cc(C#N)cn1 [Example 243, N-(3-chlorobenzyl)-4-cyano-N-ethyl-1H-pyrazole-1-carboxamide]"

Structure (SMILES),inhibition at 1 µM (FAAH) [%],inhibition at 10 µM (FAAH) [%],inhibition at 1 µM (MAGL) [%],inhibition at 10 µM (MAGL) [%],inhibition at 1 µM (PLA2G7) [%],inhibition at 10 µM (PLA2G7) [%],inhibition at 1 µM (ABHD6) [%],inhibition at 10 µM (ABHD6) [%],IC50 (FAAH) [nM],IC50 (MAGL) [nM],IC50 (PLA2G7) [nM],IC50 (ABHD6) [nM]
"COc1ccccc1N1CCN(C(=O)n2cc(C(F)(F)F)cn2)CC1 [Example 233, (4-(2-Methoxyphenyl)piperazin-1-yl)(4-(trifluoromethyl)-1H-pyrazol-1-yl)methanone]",> 75,> 75,> 75,> 75,> 75,> 75,> 75,> 75,< 100,< 100,< 100,< 100
